# Assay results as given in ChEMBL document CHEMBL1201862, “PubChem BioAssay data set” (2004).
# Calls of active or inactive are those of the source.
# Experiments:
# [1] = target: T1, DNA repair protein RAD52 homolog (Homo sapiens, UniProt P43351); format: functional, biochemical
# T1 sequence (P43351 whole entry): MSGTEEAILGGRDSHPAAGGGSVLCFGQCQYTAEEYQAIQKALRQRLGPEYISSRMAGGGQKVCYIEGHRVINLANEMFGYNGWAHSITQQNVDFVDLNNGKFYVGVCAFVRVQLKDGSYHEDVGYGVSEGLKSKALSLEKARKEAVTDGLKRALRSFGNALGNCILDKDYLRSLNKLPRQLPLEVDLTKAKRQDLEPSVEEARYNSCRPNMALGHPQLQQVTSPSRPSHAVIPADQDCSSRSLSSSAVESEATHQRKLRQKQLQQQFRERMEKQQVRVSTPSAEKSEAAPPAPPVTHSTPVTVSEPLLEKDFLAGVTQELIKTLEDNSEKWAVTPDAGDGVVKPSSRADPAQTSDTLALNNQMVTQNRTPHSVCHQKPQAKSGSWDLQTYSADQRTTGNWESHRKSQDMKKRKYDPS
# [2] = intracellular Trypanosoma cruzi inhibitors in host cells – cell-based, plate reader, cherry-pick samples, set 3, dose response (AID 651818); format: functional;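 note: compounds incubated with infected cells for about four days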
# [3] = Luminescence Cell-Based Dose Retest to Confirm Inhibitors of Cancer Stem Cells. [Related pubchem assays (depositor defined):AID2717, AID2721]; format: functional; details: Homo sapiens
# Protein RecA = target: T2, Protein RecA (Mycobacterium tuberculosis, UniProt P9WHJ3); assay: Fluorescence Cell-Free Homogeneous Dose Retest to Identify Inhibitors of RecA-Intein Splicing Activity. [Related pubchem assays (depositor defined):AID2097, AID2223, AID489010, AID492950]; format: functional
# T2 sequence (P9WHJ3 whole entry): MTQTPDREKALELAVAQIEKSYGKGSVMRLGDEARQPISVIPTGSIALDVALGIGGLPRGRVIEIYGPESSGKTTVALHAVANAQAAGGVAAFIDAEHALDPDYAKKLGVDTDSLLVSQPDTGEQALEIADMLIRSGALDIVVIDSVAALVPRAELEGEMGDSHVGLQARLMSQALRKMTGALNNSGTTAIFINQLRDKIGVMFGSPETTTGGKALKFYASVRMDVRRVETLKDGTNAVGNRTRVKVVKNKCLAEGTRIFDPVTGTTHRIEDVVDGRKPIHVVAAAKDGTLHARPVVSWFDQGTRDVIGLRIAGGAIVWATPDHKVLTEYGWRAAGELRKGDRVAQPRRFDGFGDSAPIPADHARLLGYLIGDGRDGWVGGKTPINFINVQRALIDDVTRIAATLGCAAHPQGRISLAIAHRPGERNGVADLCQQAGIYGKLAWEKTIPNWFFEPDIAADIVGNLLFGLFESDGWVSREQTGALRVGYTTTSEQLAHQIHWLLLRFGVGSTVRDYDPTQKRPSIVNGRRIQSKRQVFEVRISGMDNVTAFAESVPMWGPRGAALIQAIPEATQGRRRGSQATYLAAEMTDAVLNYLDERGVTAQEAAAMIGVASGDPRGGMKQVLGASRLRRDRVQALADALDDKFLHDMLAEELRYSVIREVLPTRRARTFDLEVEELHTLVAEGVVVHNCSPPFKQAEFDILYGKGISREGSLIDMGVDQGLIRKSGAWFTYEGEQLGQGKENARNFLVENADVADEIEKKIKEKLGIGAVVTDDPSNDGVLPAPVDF
# [4] = target: T3, Replicative DNA helicase DnaB (Mycobacterium tuberculosis, UniProt P9WMR3); assay: DnaB intein splicing inhibitors, dose response, biochemical, cell-free fluorescence (AID 449749); format: functional
# T3 sequence (P9WMR3 whole entry): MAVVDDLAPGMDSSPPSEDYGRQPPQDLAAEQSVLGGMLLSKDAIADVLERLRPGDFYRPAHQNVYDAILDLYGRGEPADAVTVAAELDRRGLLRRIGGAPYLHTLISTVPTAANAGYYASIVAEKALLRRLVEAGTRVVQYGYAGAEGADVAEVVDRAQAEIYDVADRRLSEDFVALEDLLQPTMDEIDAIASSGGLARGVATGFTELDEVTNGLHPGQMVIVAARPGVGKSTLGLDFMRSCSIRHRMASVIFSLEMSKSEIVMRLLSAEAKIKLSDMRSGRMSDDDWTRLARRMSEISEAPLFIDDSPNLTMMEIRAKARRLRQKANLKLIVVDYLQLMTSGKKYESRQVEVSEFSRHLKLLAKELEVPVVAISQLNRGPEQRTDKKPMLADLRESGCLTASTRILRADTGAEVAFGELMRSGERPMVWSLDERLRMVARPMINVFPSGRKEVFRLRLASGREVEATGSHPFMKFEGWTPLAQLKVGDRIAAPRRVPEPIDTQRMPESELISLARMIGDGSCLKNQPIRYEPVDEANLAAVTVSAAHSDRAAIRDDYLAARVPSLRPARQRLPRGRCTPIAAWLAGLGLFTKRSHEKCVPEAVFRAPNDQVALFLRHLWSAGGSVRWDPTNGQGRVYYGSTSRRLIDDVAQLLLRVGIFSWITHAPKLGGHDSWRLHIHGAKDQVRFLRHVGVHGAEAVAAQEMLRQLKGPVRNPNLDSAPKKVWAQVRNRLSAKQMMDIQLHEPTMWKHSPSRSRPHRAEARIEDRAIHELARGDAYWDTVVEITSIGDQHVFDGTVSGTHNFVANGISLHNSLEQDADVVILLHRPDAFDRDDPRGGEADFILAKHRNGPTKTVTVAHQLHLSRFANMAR
# [5] = target: Heat shock protein HSP 90-alpha (Homo sapiens, UniProt P07900); format: functional, organism-based
# [6] = tested on: Streptococcus sp. 'group A'; assay: Streptococcus pyogenes SK(-)GAS viability under kanamycin – luminescence, BacTiterGlo, confirmation, counter-screen for streptokinase expression inhibitor project, dose response (AID 1900); format: functional, organism-based
# Streptococcus = assay: GAS UMAA2166 growth inhibition – luminescence, BacTiterGlo, counter-screen for streptokinase expression inhibitor project, dose response (AID 1915); format: functional, organism-based;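 note: potency for reduction of bacterial viability or growth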
# Streptokinase A = target: T4, Streptokinase A (Streptococcus pyogenes serotype M1, UniProt P10520); assay: viability-normalized secreted streptokinase activity reduction – plasminogen activation absorbance, OD405, dose response (AID 1914); format: functional, Streptococcus pyogenes M1 GAS;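 note: secreted streptokinase activity via plasminogen activation per viability signal from cell pellet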
# T4 sequence (P10520 whole entry): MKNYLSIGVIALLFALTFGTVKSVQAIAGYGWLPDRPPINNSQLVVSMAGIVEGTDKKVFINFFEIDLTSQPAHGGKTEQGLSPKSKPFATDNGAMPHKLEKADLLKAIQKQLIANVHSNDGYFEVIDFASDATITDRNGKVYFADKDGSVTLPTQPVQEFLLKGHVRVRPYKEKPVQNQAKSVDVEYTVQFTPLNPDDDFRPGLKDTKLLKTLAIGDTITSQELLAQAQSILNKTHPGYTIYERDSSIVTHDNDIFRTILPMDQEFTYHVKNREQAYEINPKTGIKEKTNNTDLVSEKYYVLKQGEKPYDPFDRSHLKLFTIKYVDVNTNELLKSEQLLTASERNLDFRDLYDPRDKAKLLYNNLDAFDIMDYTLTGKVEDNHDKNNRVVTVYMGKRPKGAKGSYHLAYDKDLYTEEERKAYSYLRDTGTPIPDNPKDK
# [7] = target: T5, Zinc finger protein mex-5 (Caenorhabditis elegans, UniProt Q9XUB2); assay: potency of MEX-5 RNA-binding blockers – biochemical, C. elegans, fluorescence polarization, dose response (AID 1960)
# T5 sequence (Q9XUB2 whole entry): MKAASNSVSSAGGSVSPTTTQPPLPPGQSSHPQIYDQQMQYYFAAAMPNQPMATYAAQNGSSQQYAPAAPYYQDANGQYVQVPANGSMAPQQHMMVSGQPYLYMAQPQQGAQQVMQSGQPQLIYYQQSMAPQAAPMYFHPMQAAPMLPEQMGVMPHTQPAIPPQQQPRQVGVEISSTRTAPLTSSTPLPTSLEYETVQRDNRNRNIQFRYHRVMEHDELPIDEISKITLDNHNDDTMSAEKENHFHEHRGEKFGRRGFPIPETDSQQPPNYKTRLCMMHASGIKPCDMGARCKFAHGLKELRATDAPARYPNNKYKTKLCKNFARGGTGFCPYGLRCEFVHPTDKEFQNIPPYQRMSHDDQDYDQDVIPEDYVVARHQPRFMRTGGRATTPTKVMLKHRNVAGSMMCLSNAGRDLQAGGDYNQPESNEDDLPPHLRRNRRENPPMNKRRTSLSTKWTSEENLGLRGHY
# [8] = target: T6, RNA-binding protein pos-1 (Caenorhabditis elegans, UniProt G5EF15); assay: disruptors of C. elegans POS-1 RNA interaction – biochemical, fluorescence polarization, dose response (AID 1964);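 note: purified POS-1 fused to maltose binding protein made in E. coli; potency of compounds blocking POS-1 binding to fluorescent RNA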
# T6 sequence (G5EF15 whole entry): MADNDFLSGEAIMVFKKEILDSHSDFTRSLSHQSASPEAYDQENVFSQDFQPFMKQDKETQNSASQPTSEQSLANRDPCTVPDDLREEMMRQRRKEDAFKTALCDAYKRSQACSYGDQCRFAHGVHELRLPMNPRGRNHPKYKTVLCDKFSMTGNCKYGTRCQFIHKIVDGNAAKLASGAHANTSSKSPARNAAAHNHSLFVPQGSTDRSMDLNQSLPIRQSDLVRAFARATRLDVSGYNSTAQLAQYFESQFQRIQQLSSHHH
# P388 = assay: cells; format: functional; details: Mus musculus
# P388/ADR = assay: cells; format: functional; details: Mus musculus
# [9] = NIH3T3 cell viability loss – ATP luminescence, mouse fibroblasts, counter-screen, dose response (AID 2010); format: functional, cell-based;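 note: cells exposed to compound for about 90 hours before reading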
# [10] = Trypanosoma cruzi growth suppression in host cells – NIH3T3 host cells, beta-gal luminescence, confirmation (AID 2044); format: functional, cell-based;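 note: intracellular parasites grown in NIH/3T3 mouse fibroblasts as host cells; luminescent beta-galactosidase reporter signal from transgenic T. cruzi replicating inside host cells; inhibitors lower the luminescence signal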
smiles,measurement,setting,value
CN(C)CCN1CCN(c2cc(-c3cccc(Cl)c3)nc3ccnn23)CC1,AC50,[1],6.97 µM (active)
C[C@H](CO)N1C[C@H](C)[C@@H](CN(C)C(=O)Nc2ccc(C(F)(F)F)cc2)Oc2c(NC(=O)Nc3ccc(C(F)(F)F)cc3)cccc2C1=O,AC50,[2],7.68 µM (active)
same,AC50,[3],3.73 µM (active)
COc1cc(C2(c3ccc(O)c(OC)c3)C(=O)Nc3c(Br)cc(Br)cc32)ccc1O,EC50,Protein RecA,4.77 µM (active)
same,AC50,[4],3.13 µM (active)
CC1CCN(C(CC(=O)c2ccccc2)C(=O)c2ccccc2)CC1 (stereo unspecified),AC50,[5],7.7 µM (active)
CCOc1cc(/C=C2/C(=N)N3OC(C)=CC3=NC2=O)ccc1O,EC50,Protein RecA,26.9 µM (active)
same,AC50,[4],95.1 µM (active)
Cc1ccc(S(=O)(=O)Nc2cccc3c2O[C@H](CN(C)C(=O)Nc2ccc4c(c2)OCO4)[C@H](C)CN([C@H](C)CO)C3=O)cc1,AC50,[2],20 µM (inactive)
Cc1ccc(N/N=C(\C#N)C(=N)S)c(C)c1,EC50,[6],32.6 µM (active)
same,AC50,[5],1.84 µM (active)
same,EC50,Streptococcus,20.8 µM (active)
same,EC50,Streptokinase A,> 150 µM (not active)
COc1ccc(C2=CC3=C(Br)C(=O)C(C)(OC(=O)c4ccco4)C(=O)C3=CO2)cc1 (stereo unspecified),AC50,[5],4.13 µM (active)
same,EC50,[7],35.9 µM (active)
same,EC50,[8],> 300 µM (not active)
C[C@H]1CN([C@@H](C)CO)C(=O)Cc2cc(NC(=O)NC3CCCCC3)ccc2O[C@H]1CN(C)Cc1ccc(C(=O)Nc2ccccc2N)cc1,AC50,[2],2.97 µM (active)
CCCCCCOc1ccc(N2C(=O)CC(N3CCC(C(=O)OCC)CC3)C2=O)cc1 (stereo unspecified),AC50,[5],2.3 µM (active)
COC(=O)C12OCC34C(CC5C(C)=CC(=O)C(O)C5(C)C3C(O)C1O)OC(=O)C(OC(=O)CC(C)C)C24 (stereo unspecified),GI50,P388,0.00154 µM (active)
same,GI50,P388/ADR,0.0216 µM (active)
C[C@H](CO)N1C[C@H](C)[C@@H](CN(C)S(=O)(=O)c2cn(C)cn2)Oc2c(cccc2N(C)C)C1=O,AC50,[2],15.8 µM (active)
COC(=O)c1cc([N+](=O)[O-])c(-n2ccnc2)c([N+](=O)[O-])c1,EC50,Protein RecA,4.53 µM (active)
same,AC50,[4],6.54 µM (active)
CC(C)c1n[nH]c2c1C(c1cccs1)C(C#N)=C(N)O2 (stereo unspecified),EC50,Protein RecA,4.29 µM (active)
same,AC50,[4],10.8 µM (active)
COc1cc(C2NC(=O)C(C#N)=C(Nc3cccc(C)c3)S2)ccc1O (stereo unspecified),EC50,Protein RecA,20 µM (active)
same,AC50,[4],42 µM (active)
O=C1c2cccc3cc4ccccc4c(c23)C(=O)N1CCNCCNCCNCCN1C(=O)c2cccc3cc4ccccc4c(c23)C1=O,GI50,P388,< 0.0146 µM (active)
same,GI50,P388/ADR,< 0.0187 µM (active)
CN(C)CCCNC(=O)c1ccc(-c2cc3nc(NCc4cccnc4)n(C)c(=O)c3s2)cc1,AC50,[1],13.3 µM (active)
C[C@@H]1CN([C@H](C)CO)C(=O)Cc2cc(NS(=O)(=O)c3ccc(F)cc3)ccc2O[C@@H]1CN(C)S(=O)(=O)c1ccc(Cl)cc1,AC50,[2],2.31 µM (active)
CC(C)(C)C(O)C(Oc1ccc(Cl)cc1)n1cncn1 (stereo unspecified) [TRIADIMENOL],EC50,[9],> 60 µM (not active)
same,AC50,[5],0.29 µM (active)
same,EC50,[10],1.51 µM (active)
COc1ccc(CN(C)C[C@@H]2Oc3ccc(NC(=O)Cc4ccccc4)cc3CC(=O)N([C@@H](C)CO)C[C@@H]2C)cc1,AC50,[2],4.08 µM (active)
C[C@@H]1CN([C@H](C)CO)C(=O)Cc2cc(NC(=O)Nc3ccccc3)ccc2O[C@@H]1CN(C)Cc1ccc(C(=O)Nc2ccccc2N)cc1,AC50,[2],3.23 µM (active)
C[C@@H]1CN([C@H](C)CO)C(=O)Cc2cc(NC(=O)Nc3ccc(F)cc3)ccc2O[C@H]1CN(C)Cc1ccc(C(F)(F)F)cc1,AC50,[2],7.02 µM (active)
CCOC(=O)CC1=NN(c2ccccc2)C(=O)C1,EC50,Protein RecA,10.1 µM (active)
same,AC50,[4],13.1 µM (active)
C[C@H]1CN([C@@H](C)CO)C(=O)c2cccc(NC(=O)Nc3ccc4c(c3)OCO4)c2O[C@@H]1CN(C)Cc1ccc(C(=O)Nc2ccccc2N)cc1,AC50,[2],2.18 µM (active)
COc1ccc2c3c(c4cc(OC)c(OC)cc4c2c1)C[C@H]1CCCCN1C3 [CRYPTOPLEURINE],GI50,P388,0.005 µM (active)
